# Measurements as given in patent US20090156477A1, “Compositions and Methods for Regulating Inflammatory Responses” (Massachusetts Institute of Technology, priority 2005, published 2009).
# B1: FGF7: Recombinant human FGF7 from Sigma (protein, UniProt P21781 32-194, looked up)
# Fibroblast growth factor 7: CNDMTPEQMATNVNCSSPERHTRSYDYMEGGDIRVRRLFCRTQWYLRIDKRGKVKGTQEMKNNYNIMEIRTVAVGIVAIKGVESEFYLAMNKEGKLYAKKECNEDCNFKELILENHYNTYASAKWTHNGGEMFVALNQKGIPVRGKKTKKEQKTAHFLPMAIT
# Key:
# Format in all cases: cell-based, human
# caveolin-1 = experiment: Immunohistochemistry for caveolin-1 in Caco-2 cells; details: four hours after administration
# Experimental: Caco-2 cells were grown to just prior to confluency on collagen IV coated glass slides. Cells were treated with PBS, FGF1, FGF2 and FGF7, and were incubated at 37° C. in a 5% CO2 humidified incubator for 1 hour, 4 hours, 24 hours or 48 hours, as noted. Cells were washed with PBS, fixed with 3.7% formalin for 10 minutes and washed again with PBS. Cells were treated with 0.1% Triton x-100 for 5 minutes to extract lipids. Cells were washed with PBS and preincubated with PBS supplemented with 1% bovine serum albumin. Primary antibodies were added for 4 hours at room temperature, and cells were washed with PBS. […]
# Cells, except those stained with phalloidin, were washed with PBS and stained with diamidino-2-phenylindole (DAPI) for 5 minutes at room temperature (Molecular Probes). […] Cells were examined by confocal microscopy (ZO-1 and phalloidin only), or by fluorescence microscopy. A Nikon HB10101AF fluorescence microscope was used and images were captured at room temperature using a Hitachi HVC20 camera and Scion image acquisition software. […]
# T84 monolayers = experiment: Monolayer flux of 3 kDa FITC-dextran, T84; details: 100 ng/ml ligand on days 10 and 12, flux measured on day 15, PBS 7.99 ± 0.22
# Experimental: Cells were plated on transwells as described. Media from the basolateral chamber was removed every other day and replaced with new media. Resistances were followed for 10 days, and either 100 ng/ml FGF2, 100 ng/ml FGF7 or 10 μl PBS were added on days 10 and 12. On day 15, media was removed from both the apical and basolateral chambers. The basolateral chamber was filled with 1 ml HBSS. FITC conjugated to 3 kDa dextran was added to the apical chamber in a volume of 100 μl, at 1 mg/ml in HBSS. After 30, 60 and 90 minutes, 50 μl was removed from the basolateral chamber and transferred to a 96 well plate, and 50 μl HBSS was added to the basolateral chamber. Subsequently, the flux was determined by measurement of FITC-conjugated dextran that crossed the monolayer by measurement with a fluorimeter, stimulating at 480 nm and measuring emission at 530 nm.
# E-cadherin = experiment: Immunohistochemistry for E-cadherin in Caco-2 cells; details: for E-cadherin localization after 24 hours: vs 1 hour and vs PBS and FGF1
# Experimental: Caco-2 cells were grown to just prior to confluency on collagen IV coated glass slides. Cells were treated with PBS, FGF1, FGF2 and FGF7, and were incubated at 37° C. in a 5% CO2 humidified incubator for 1 hour, 4 hours, 24 hours or 48 hours, as noted. Cells were washed with PBS, fixed with 3.7% formalin for 10 minutes and washed again with PBS. Cells were treated with 0.1% Triton x-100 for 5 minutes to extract lipids. Cells were washed with PBS and preincubated with PBS supplemented with 1% bovine serum albumin. Primary antibodies were added for 4 hours at room temperature, and cells were washed with PBS. Primary antibodies used were as follows: rabbit anti-human ZO-1 (1:160; Zymed Laboratories, San Francisco, Calif.); mouse anti-human syndecan-1 (1:300; Santa Cruz Biotechnology); goat anti-human Fz-1 (1:125; Santa Cruz Biotechnology); rabbit anti-human caveolin-1 (1:250; Santa Cruz Biotechnology); goat anti-human glypican-1 (1:100; Santa Cruz Biotechnology); mouse anti-human E-cadherin (1:250; Zymed Laboratories); rabbit anti-human β-catenin (1:125; Cell Signaling Technology, Beverly, Mass.); and rabbit anti-human phospho-β-catenin (Ser33/37/Thr41; 1:125; Cell Signaling Technology, Beverly, Mass.).
# Cells were then treated with secondary antibodies, Texas Red-labeled phalloidin (Molecular Probes, Eugene, Oreg.) or FLAER-FL1 (1:400; Protox Biotech, Victoria, BC, Canada) as appropriate for 1 hour in the dark at room temperature. Secondary antibodies used were as follows: FITC-labeled chicken anti-rabbit (for ZO-1; 1:100; Molecular Probes, Eugene, Oreg.); Texas Red-labeled goat-anti mouse (for syndecan-1; 1:400; Molecular Probes); FITC-labeled donkey anti-mouse (for syndecan-1; 1:400; Molecular Probes, Eugene, Oreg.); FITC-labeled rabbit anti-mouse (for syndecan-1 and E-cadherin; 1:500; Molecular Probes, Eugene, Oreg.); Texas Red-labeled rabbit anti-goat (for Fz-1; 1:200; Jackson ImmunoResearch Laboratories, West Grove, Pa.); Texas Red-labeled goat anti-rabbit (for caveolin-1, β-catenin and phospho-β-catenin; 1:500; Molecular Probes); and Texas Red-labeled donkey anti-goat (for glypican-1; 1:80; Research Diagnostics, Flanders, N.J.).
# Cells, except those stained with phalloidin, were washed with PBS and stained with diamidino-2-phenylindole (DAPI) for 5 minutes at room temperature (Molecular Probes). Controls of no antibody, primary antibody only, and secondary antibody only were performed. Cells were examined by confocal microscopy (ZO-1 and phalloidin only), or by fluorescence microscopy. A Nikon HB10101AF fluorescence microscope was used and images were captured at room temperature using a Hitachi HVC20 camera and Scion image acquisition software. Images were processed using Adobe Photoshop 7.0 and Adobe Illustrator 10.0.
Molecule,caveolin-1 localization (caveolin-1),Flux across monolayers (3 kDa-dextran conjugated to FITC; function of emission at 530 nm over time) (T84 monolayers),E-cadherin localization after 1 hour (E-cadherin),E-cadherin localization after 24 hours (E-cadherin)
FGF1: Recombinant human FGF1 from Amgen,localized surrounding the nucleus,–,–,–
"FGF2: Recombinant human FGF2, produced as described",–,37.21 ± 10.25,altered E-cadherin localization,more cytoplasmic localization
B1,–,33.39 ± 9.24,altered E-cadherin localization,more cytoplasmic localization
